Results as given in patent publication US20220267341A1, “SOLID FORMS OF TERT-BUTYL (S)-2((2S,3R)-1-AMINO-3-HYDROXY-1-OXOBU TAN-2-YL)-1-OXO-2, 5-DIAZASPIRO [3.4] OCTAN E-5-CARBOXYLATE AND METHODS OF PREPARING THEM” (NAUREX INC., priority 2019, published 2022).

Key:
Assay type in all cases: physicochemical
[1] = Competitive slurry in mixtures of water and isopropanol; settings: 25° C.
Procedure: Competitive slurry in mixtures of water and isopropanol indicates the phase boundary between the crystalline Form I and crystalline Form II is between water activity of 0.66-0.78 at 25° C. At water activity above 0.78, crystalline Form II is the stable form, whereas at water activity below 0.66, crystalline Form I is the stable form

[2] = DVS water vapor desorption analysis; settings: 25° C.
Procedure: DVS: The following method was used for the water vapor desorption analysis using a DVS Advantage (Surface Measurement Systems). • Temperature: 25° C. • RH program: 95, 90, 80, 70, 60, 50, 40, 35, 30, 20, 10, 0%. • Dm/dt (%/min.): 0.0005 • Minimum equilibrium time: 120 minutes • Maximum equilibrium time: 2000 minutes
The solid was also subjected to DVS measurement and lost about 11% water at 0% RH.

[3] = Thermogravimetric analysis (TGA); settings: heated from room temperature at 10° C./minute; consistent with a dihydrate
Procedure: TGA: Approximately 5-10 mg sample was heated from room temperature to 250° C. at 10° C./minute.
(§1) In another experiment, about 2 g of crystalline Form I of Compound A from Example 1 was weighed into a 20 mL scintillation vial and 4 mL of Milli-Q water was added into the vial. The resulting suspension was stirred with a spatula and left at room temperature for one day. The residual was then filtered with vacuum and dried in a vacuum oven at room temperature for about 20 hours. XRPD was taken after drying and Form II was confirmed since it was essentially the same as FIG. 3, top panel. […] The dried sample was then dehydrated in a TGA pan at 80° C. (ramp from room temperature to 80° C. at 10° C./min and then isothermal for 2 min).

[4] = DSC thermogram (dehydration event); settings: 20 to 180° C. at 10° C./min, pin-hole lid
Procedure: DSC: DSC thermograms were obtained using a TA Instruments DSC Q2000. Approximately 1-2 mg of sample was weighed into a Tzero aluminum pan and hermetically sealed with a Tzero hermetic lid. For crystalline Form II samples, the lid was punched with a pin-hole. • DSC: Sample was scanned from 20 to 180° C. at 10° C./min.
as §1

[5] = Dehydration in a TGA pan at 80° C., form checked by XRPD and DSC; settings: ramp to 80° C. at 10° C./min then isothermal for 2 min
Procedure: as §1

| Compound | water activity at which the form is the stable form [1] | water lost in DVS ([2]; 0% RH) | water loss in DVS at or above 20% RH ([2]; at or above 20% RH) | TGA weight loss [3] [%] | possible dehydration event in DSC [4] | solid form after dehydration [5] | water activity at which the form is the stable form ([1]; dihydrate) |
| --- | --- | --- | --- | --- | --- | --- | --- |
| C[C@@H](O)[C@@H](C(N)=O)N1C[C@@]2(CCCN2C(=O)OC(C)(C)C)C1=O [crystalline Form I of Compound A, tert-butyl (S)-2-((2S,3R)-1-amino-3-hydroxy-1-oxobutan-2-yl)-1-oxo-2,5-diazaspiro[3.4]octane-5-carboxylate] | below 0.66 | – | – | – | – | – | – |
| C[C@@H](O)[C@@H](C(N)=O)N1C[C@@]2(CCCN2C(=O)OC(C)(C)C)C1=O [crystalline Form II of Compound A, tert-butyl (S)-2-((2S,3R)-1-amino-3-hydroxy-1-oxobutan-2-yl)-1-oxo-2,5-diazaspiro[3.4]octane-5-carboxylate dihydrate] | – | about 11% | did not lose water | 9.6 | about 82 °C | mostly crystalline Form I with residual amorphous content and very small amount of crystalline Form II | above 0.78 |
